Assay results taken from patent US20220339143A1, “TAK-925 FOR USE IN TREATING NARCOLEPSY” (Takeda Pharmaceutical Company Limited, priority 2019, published 2022).

Assay: Single dose PK in healthy subjects (Cohorts 1, 2, S1 and S2), plasma
Format: in vivo, human
Procedure: This study investigates (i) the safety and tolerability of Compound A (methyl (2R,3S)-3-((methylsulfonyl)amino)-2-(((cis-4-phenylcyclohexyl)oxy)methyl)piperidine-1-carboxylate) when a single dose given as a 9 hour continuous IV infusion is administered to healthy adults, healthy elderly subjects and patients with narcolepsy type 1 (NT1); (ii) the pharmacokinetics of Compound A when a single dose given as a 9 hour continuous IV infusion is administered to healthy adults, healthy elderly subjects and patients with narcolepsy type 1; and (iii) the pharmacodynamics (PD) effects of Compound A, primarily by evaluation of the sleep latency on MWT when a single dose given as a 9 hour continuous IV infusion is administered to patients with narcolepsy type 1.
Pharmacokinetics: Concentrations of Compound A in plasma, and CSF, and pharmacokinetics parameters.
On average, the time to reach the plateau appeared to be approximately 3 to 4 hours after the start of infusion. […] After switching off the IV infusion, Compound A plasma concentrations declined rapidly and in a biphasic manner with a mean terminal disposition phase t1/2z ranging approximately from 3.4 to 5.1 hours across all doses. […] Table 5 provides a summary of plasma concentrations of Compound A after a single IV infusion in healthy subjects. Table 6 provides a summary of pharmacokinetic parameters of Compound A after a single IV infusion in healthy subjects.

[1] = 7 mg single IV infusion, healthy subjects
[2] = 7 mg, 0.17 hr After End of Infusion
[3] = 14 mg single IV infusion, healthy subjects
[4] = 28 mg single IV infusion, healthy subjects
[5] = 28 mg, 0.17 hr After End of Infusion
[6] = 28 mg, 0.33 hr After End of Infusion
[7] = 28 mg, 0.5 hr After End of Infusion
[8] = 28 mg, 0.75 hr After End of Infusion
[9] = 28 mg, 1 hr After End of Infusion
[10] = 28 mg, 1.5 hr After End of Infusion
[11] = 28 mg, 2 hr After End of Infusion
[12] = 56 mg single IV infusion, healthy subjects
[13] = 56 mg, 0.17 hr After End of Infusion
[14] = 56 mg, 0.33 hr After End of Infusion
[15] = 56 mg, 0.5 hr After End of Infusion
[16] = 56 mg, 0.75 hr After End of Infusion
[17] = 56 mg, 1 hr After End of Infusion
[18] = 56 mg, 1.5 hr After End of Infusion

COC(=O)N1CCC[C@H](NS(C)(=O)=O)[C@@H]1CO[C@H]1CC[C@@H](c2ccccc2)CC1 [Compound A, methyl (2R,3S)-3-((methylsulfonyl)amino)-2-(((cis-4-phenylcyclohexyl)oxy)methyl)piperidine-1-carboxylate]
AUCinf D Mean [1]: 20.48 ng·h/mL/mg
AUCinf D Median [1]: 20.80 ng·h/mL/mg
CL Median [1]: 48.10 L/h
Cmax D Mean [1]: 2.416 ng/mL/mg
Cmax D Median [1]: 2.360 ng/mL/mg
Vss Median [1]: 100.0 L
t½z Mean [1]: 4.120 h
t½z Median [1]: 3.220 h
Plasma concentration, Mean [2]: 9.360 ng/mL
Plasma concentration, Minimum [2]: 7.91 ng/mL
Plasma concentration, Q1 [2]: 9.090 ng/mL
Plasma concentration, Mean (7 mg, Predose): 0.000 ng/mL
Plasma concentration, Minimum (7 mg, Predose): 0.00 ng/mL
Plasma concentration, Q1 (7 mg, Predose): 0.000 ng/mL
AUCinf D Mean [3]: 23.70 ng·h/mL/mg
AUCinf D Median [3]: 23.05 ng·h/mL/mg
Cmax D Mean [3]: 2.647 ng/mL/mg
Cmax D Median [3]: 2.640 ng/mL/mg
t½z Mean [3]: 4.498 h
t½z Median [3]: 4.170 h
AUCinf D Mean [4]: 18.90 ng·h/mL/mg
AUCinf D Median [4]: 19.60 ng·h/mL/mg
Cmax D Mean [4]: 2.076 ng/mL/mg
Cmax D Median [4]: 2.120 ng/mL/mg
t½z Mean [4]: 5.142 h
t½z Median [4]: 5.060 h
Plasma concentration, Maximum [5]: 34.9 ng/mL
Plasma concentration, Mean [5]: 32.52 ng/mL
Plasma concentration, Median [5]: 32.80 ng/mL
Plasma concentration, Minimum [5]: 28.2 ng/mL
Plasma concentration, Q1 [5]: 32.70 ng/mL
Plasma concentration, Q3 [5]: 34.00 ng/mL
Plasma concentration, Maximum [6]: 32.2 ng/mL
Plasma concentration, Mean [6]: 28.04 ng/mL
Plasma concentration, Median [6]: 27.20 ng/mL
Plasma concentration, Minimum [6]: 25.4 ng/mL
Plasma concentration, Q1 [6]: 26.70 ng/mL
Plasma concentration, Q3 [6]: 28.70 ng/mL
Plasma concentration, Maximum [7]: 33.7 ng/mL
Plasma concentration, Mean [7]: 25.36 ng/mL
Plasma concentration, Median [7]: 24.20 ng/mL
Plasma concentration, Minimum [7]: 20.9 ng/mL
Plasma concentration, Q1 [7]: 21.30 ng/mL
Plasma concentration, Q3 [7]: 26.70 ng/mL
Plasma concentration, Maximum [8]: 23.9 ng/mL
Plasma concentration, Mean [8]: 20.82 ng/mL
Plasma concentration, Median [8]: 19.50 ng/mL
Plasma concentration, Minimum [8]: 19.0 ng/mL
Plasma concentration, Q1 [8]: 19.10 ng/mL
Plasma concentration, Q3 [8]: 22.60 ng/mL
Plasma concentration, Maximum [9]: 21.4 ng/mL
Plasma concentration, Mean [9]: 18.56 ng/mL
Plasma concentration, Median [9]: 18.00 ng/mL
Plasma concentration, Minimum [9]: 15.6 ng/mL
Plasma concentration, Q1 [9]: 17.80 ng/mL
Plasma concentration, Q3 [9]: 20.00 ng/mL
Plasma concentration, Maximum [10]: 18.9 ng/mL
Plasma concentration, Mean [10]: 16.70 ng/mL
Plasma concentration, Median [10]: 18.00 ng/mL
Plasma concentration, Minimum [10]: 13.6 ng/mL
Plasma concentration, Q1 [10]: 14.90 ng/mL
Plasma concentration, Q3 [10]: 18.10 ng/mL
Plasma concentration, Maximum [11]: 13.4 ng/mL
Plasma concentration, Mean [11]: 10.53 ng/mL
Plasma concentration, Median [11]: 9.600 ng/mL
Plasma concentration, Minimum [11]: 8.06 ng/mL
Plasma concentration, Q1 [11]: 8.990 ng/mL
Plasma concentration, Q3 [11]: 12.60 ng/mL
AUCinf D Mean [12]: 19.27 ng·h/mL/mg
AUCinf D Median [12]: 18.75 ng·h/mL/mg
Cmax D Mean [12]: 2.200 ng/mL/mg
Cmax D Median [12]: 2.170 ng/mL/mg
t½z Mean [12]: 3.860 h
t½z Median [12]: 3.760 h
Plasma concentration, Maximum [13]: 79.9 ng/mL
Plasma concentration, Mean [13]: 63.58 ng/mL
Plasma concentration, Median [13]: 62.50 ng/mL
Plasma concentration, Minimum [13]: 54.5 ng/mL
Plasma concentration, Q1 [13]: 55.60 ng/mL
Plasma concentration, Q3 [13]: 66.50 ng/mL
Plasma concentration, Mean [14]: 54.37 ng/mL
Plasma concentration, Median [14]: 53.25 ng/mL
Plasma concentration, Minimum [14]: 44.7 ng/mL
Plasma concentration, Q1 [14]: 45.00 ng/mL
Plasma concentration, Mean [15]: 50.33 ng/mL
Plasma concentration, Median [15]: 50.10 ng/mL
Plasma concentration, Minimum [15]: 38.4 ng/mL
Plasma concentration, Q1 [15]: 40.90 ng/mL
Plasma concentration, Mean [16]: 45.77 ng/mL
Plasma concentration, Median [16]: 47.20 ng/mL
Plasma concentration, Minimum [16]: 33.3 ng/mL
Plasma concentration, Q1 [16]: 36.90 ng/mL
Plasma concentration, Mean [17]: 41.83 ng/mL
Plasma concentration, Median [17]: 39.80 ng/mL
Plasma concentration, Minimum [17]: 30.1 ng/mL
Plasma concentration, Q1 [17]: 34.80 ng/mL
Plasma concentration, Mean [18]: 33.63 ng/mL
Plasma concentration, Median [18]: 31.35 ng/mL
Plasma concentration, Minimum [18]: 27.4 ng/mL
Plasma concentration, Q1 [18]: 28.40 ng/mL
